# Reference: article PMC12029786 (2025)
# Key:
# [1] = system: Karashi (17-3min RNA) (RNA, aptamer) GGGCUGAAUGAAGAGCAGUAGCGAGUAGUUCACAAGCUUCGGCUUGUAGGAAGUAAAUGUGCAAAUCCGUAACUAGCCU; experiment: fluorescence enhancement; details: 10 mM Mg2+; 40 mM Tris-Cl pH 7.5, 37 °C; 0.1 μM RNA, 0.1 μM DMHBI
# [2] = system: Karashi A51G (RNA, aptamer) GGGCUGAAUGAAGAGCAGUAGCGAGUAGUUCACAAGCUUCGGCUUGUAGGGAGUAAAUGUGCAAAUCCGUAACUAGCCU; experiment: fluorescence enhancement; details: 10 mM Mg2+; 40 mM Tris-Cl pH 7.5, 37 °C; 0.1 μM RNA, 0.1 μM DMHBI
# [3] = system: Karashi G69A (RNA, aptamer) GGGCUGAAUGAAGAGCAGUAGCGAGUAGUUCACAAGCUUCGGCUUGUAGGAAGUAAAUGUGCAAAUCCAUAACUAGCCU; experiment: fluorescence enhancement; details: 10 mM Mg2+; 40 mM Tris-Cl pH 7.5, 37 °C; 0.1 μM RNA, 0.1 μM DMHBI
# [4] = system: Jigarashi RNA (RNA, aptamer) GGUUUCCCCGAAGAGCAGUAGCGAGUAGGGGCCCAGCUUCGGCUGGGAGGAAGUAAAUGUGCAAAUCCGUAACUAAACU; experiment: fluorescence enhancement; details: 10 mM Mg2+; 40 mM Tris-Cl pH 7.5, 37 °C; 0.1 μM RNA, 0.1 μM DMHBI
# [5] = system: fr-1 RNA + fr-2 RNA (RNA, aptamer) GGUUUCCCCGAAGAGCAGUAGCGAGUAGGGGCCCAGCU/GGCUGGGAGGAAGUAAAUGUGCAAAUCCGUAACUAAACU; experiment: fluorescence enhancement; details: 10 mM Mg2+; 40 mM Tris-Cl pH 7.5, 37 °C; 0.1 μM each RNA, 0.1 μM DMHBI
# [6] = system: 17-3minCP (RNA, aptamer) GGGCUUGUAGGAAGUAAAUGUGCAAAUCCGUAACUAGCUUCGGCUGAAUGAAGAGCAGUAGCGAGUAGUUCACAAGCCU; experiment: fluorescence enhancement; details: 10 mM Mg2+; 40 mM Tris-Cl pH 7.5, 37 °C; 0.1 μM RNA, 0.1 μM DMHBI
# [7] = system: m1 mutant of 17-3min RNA (RNA, aptamer) GGGCUGUUUGAAGAGCAGUAGCGAGUAGAACACAAGCUUCGGCUUGUAGGAAGUAAAUGUGCAAAUCCGUAACUAGCCU; experiment: fluorescence enhancement; details: 10 mM Mg2+; 40 mM Tris-Cl pH 7.5, 37 °C; 0.1 μM RNA, 0.1 μM DMHBI
# [8] = system: m3 mutant of Karashi RNA (RNA, aptamer) GGGCUGCCUGAAGAGCAGUAGCGAGUAGGGCACAAGCUUCGGCUUGUAGGAAGUAAAUGUGCAAAUCCGUAACUAGCCU; experiment: fluorescence enhancement; details: 10 mM Mg2+; 40 mM Tris-Cl pH 7.5, 37 °C; 0.1 μM RNA, 0.1 μM DMHBI
# [9] = system: 17-3 RNA (RNA, aptamer) GGGAGACGCAACUGAAUGAAGAGCAGUAGCGAGUAGUUCACAAGAGCUGCUUCGGCAGGAUCUUGUAGGAAGUAAAUGUGCAAAUCCGUAACUAGUCGCGUCAC; experiment: fluorescence enhancement titration; details: 50 mM Mg2+; 40 mM Tris-Cl pH 7.5, 37 °C; 5 nM DMHBI titrated with RNA; Hill fit
smiles,measurement,setting,value
COc1cc(/C=C2\N=C(C)N(C)C2=O)cc(OC)c1O,binding,[1],yes
same,binding,[2],yes
same,binding,[3],yes
same,binding,[4],yes
same,binding,[5],yes
same,binding,[6],yes
same,binding,[7],yes
same,binding,[8],yes
same,Kd,[9],43 nM
